Patent publication US4918173A, “2',6'-Dideoxy derivatives of anthracycline glycosides” (Laboratories Hoechst S.A., priority 1985, dated 1990)
≈ marks a conversion by molar mass, not a printed value. Read-outs that look alike come from different tables or passages of the source.

Tests used:
L 1210 leukemia cells = assay: Effect on L 1210 leukemia cells: colony formation in agarose, method of Hamburger and Salmon modified; type: cell-based; conditions: Mus musculus
Procedure: The cells are incubated for 1 hour at 37° C. in the presence of various concentrations of the tested substance. The cells are then washed twice with Mc Coy 5 A and placed on agarose plates according to the method of Hamburger and Salmon. Furthermore, the test is carried out in parallel with continuous incubation with various concentrations of the substance under study by introducing the substance into the agarose layer before the cells are left to incubate. The dishes are placed in the oven at 37° C. under an atmosphere of 5% CO2 and 20% O2, and a relative humidity of 95% for 5 to 7 days. After this time the colonies with a diameter greater than 60 mcm are counted with the aid of a reversed microscope. […] Two experiments are carried out, one with 1 hour's exposure, the other with continuous exposure.

[1] = versus the parent compounds; F. Arcamone et al. 1976; cited from earlier work
[2] = L1210, L 1210 leukemia cells, 1 h exposure at 37° C., read-out: IC 50, 1 h exposure
[3] = L1210, L 1210 leukemia cells, continuous exposure (substance in agarose layer), 5 to 7 days, read-out: IC 50, Continuous exposure

| Compound | IC50 (L 1210 leukemia cells; [2]) | IC50 (L 1210 leukemia cells; [3]) | other results |
| --- | --- | --- | --- |
| CC(=O)O[C@H]1[C@H](C)O[C@@H](O[C@H]2C[C@]3(COC(C)(C)O3)Cc3c(O)c4c(c(O)c32)C(=O)c2ccccc2C4=O)C[C@@H]1OC(C)=O [XXIII, 1-O-(3',4'-Di-O-acetyl-2',6'-dideoxy-α-L-arabinohexopyranosyl)-1,2,3,4,6,11-hexahydro-1S,3S,5,12-tetrahydroxy-3-hydroxymethyl-3,13-O-isopropylidenenaphthacene-6,11-dione] | 2.8 µg/mL (≈ 4.59 µM) | > 10 µg/mL |  |
| C[C@@H]1O[C@@H](O[C@H]2C[C@](O)(CO)Cc3c(O)c4c(c(O)c32)C(=O)c2ccccc2C4=O)C[C@H](O)[C@H]1O [XXV, 1-O-(2',6'-dideoxy-α-L-arabinohexopyranosyl)-1,2,3,4,6,11-hexahydro-1S,3S,5,12-tetrahydroxy-3-hydroxymethylnaphthacene-6,11-dione] | 0.025 µg/mL (≈ 0.0514 µM) | 0.063 µg/mL (≈ 0.13 µM) |  |
| C[C@@H]1O[C@@H](O[C@H]2C[C@]3(COC(C)(C)O3)Cc3c(O)c4c(c(O)c32)C(=O)c2ccccc2C4=O)C[C@H](O)[C@H]1O | > 1 µg/mL | > 1 µg/mL |  |
| COc1cccc2c1C(=O)c1c(O)c3c(c(O)c1C2=O)C[C@@](O)(C(=O)CO)C[C@@H]3O[C@H]1C[C@H](N)[C@H](O)[C@H](C)O1 [adriamycin] |  |  | activity relative to the parent compounds [1]: more active; toxicity relative to the parent compounds [1]: less toxic |
| CC(=O)[C@]1(O)Cc2c(O)c3c(c(O)c2[C@@H](O[C@H]2C[C@H](N)[C@H](O)[C@H](C)O2)C1)C(=O)c1ccccc1C3=O [4-demethoxydaunorubicin] |  |  | activity relative to the parent compounds [1]: more active; toxicity relative to the parent compounds [1]: less toxic |
| COc1cccc2c1C(=O)c1c(O)c3c(c(O)c1C2=O)C[C@@](O)(C(=O)CO)C[C@@H]3O[C@H]1C[C@H](N)[C@H](O)[C@H](C)O1 [DOXORUBICIN, reference compound] |  |  | IC50 (L 1210 leukemia cells; L1210, 1 h, read-out: IC 50, 1 h exposure): 0.02 µg/mL (≈ 0.0368 µM); IC50 (L 1210 leukemia cells; L1210, read-out: IC 50, Continuous exposure): 0.04 µg/mL (≈ 0.0736 µM) |
| CC(=O)O[C@H]1[C@H](C)O[C@@H](O[C@H]2C[C@](O)(CO)Cc3c(O)c4c(c(O)c32)C(=O)c2ccccc2C4=O)C[C@@H]1OC(C)=O [XXIV, 1-O-(3',4'-Di-O-acetyl-2',6'-dideoxy-α-L-arabinohexopyranosyl)-1,2,3,4,6,11-hexahydro-1S,3S,5,12-tetrahydroxy-3-hydroxymethylnaphthacene-6,11-dione] | 0.021 µg/mL (≈ 0.0368 µM) | 3.6 µg/mL (≈ 6.31 µM) |  |
